From US20140374103A1, “TREATING AND RECYLCING OILFIELD WASTE WATER” (BAKER HUGHES INCORPORATED, priority 2013, published 2014) come the findings set out here.

The subject of this assay is bacteria in oilfield waste water. The following applies: 10 mL of 30 vol % hydrogen peroxide to 250 mL raw oilfield waste water (Sample A and Sample B), room temperature, stirred; before vs after treatment; FIGS. 4 and 5.

Method: The number density of the bacteria present in the oilfield waste water is determined before or after introduction of the biocide, the oxidizer, or a combination thereof. Determining the number density of the bacteria is accomplished in various manners. In an embodiment, the number density of the bacteria is determined by particle sizing such as by light scattering. In another embodiment, a small volume of oilfield water is disposed on an agar plate or slant tube and subjected to microbiological counting methods. Alternatively, the number density of the bacteria is determined by quantifying an amount of bacterial adenosine triphosphate (ATP) in a sample of the oilfield waste water, wherein the ATP is retrieved from living bacterial cells. The sample size is a portion or all of the oilfield waste water. […] The ATP quantification is accomplished by lysing the bacterial cells using an enzyme to release ATP into the sample of the oilfield waste water. An assay for the amount of ATP includes introducing a luminescent enzyme such as firefly luciferase to the sample and thereafter collecting luminescence from the luminescent enzyme. […] Thereafter, the number density of bacteria in the oilfield waste water is calculated from the amount of bacterial ATP. […] An aliquot of Sample A and Sample B was collected and subjected to ATP quantification before and after treatment with the hydrogen peroxide.

As to `OO` [hydrogen peroxide], the “number density of bacteria in the treated water” value was “drastically decreases the number density of bacteria”.
